Read-outs that look alike come from different tables or passages of the source.
How the values were obtained:
[1] = test system: IL-17 secretion in PBMC; test: PBMC IL-17 secretion ELISA; format: cell-based; settings: anti-CD3/anti-CD28/IL-23 stimulated human PBMC, mean ± SEM, read-out: hPBMC IL-17 ELISA
Procedure: Following the incubation period the plates are spun at 200×g for five minutes. Supernatants are diluted 1:1 with equal volume 1% BSA/PBS and tested for IL-17 with a human IL-17 ELISA kit from R&D system (catalog #D317E) according to the protocol provided with the kit with one exception—the colorimetric substrate OPD (o-phenylenediamine dihydrochloride, Sigma Cat #P6912) is used instead of the substrate supplied in the kit. Absorbance at 492 nm is measured with the Envision multi-label plate reader. A492 values are converted to concentration of IL-17 based on the IL-17 standard curve as shown below:
pg/mL IL-17=EC50*[[(Top−Bottom)/(A492−Bottom)]−1](1/−Hill). IC50's for inhibition of IL-17 secretion is calculated based on converted values using a standard 4-parameter fit with maximum inhibition determined from the average values of wells with no added stimulants nor compounds and minimum inhibition from the average values of wells with stimulants alone and no added compound.

[2] = test system: GPI induced arthritis in DBA/1 mice; test: Glucose-6-phosphate isomerase (GPI) induced arthritis model; format: in vivo, mouse; settings: male DBA/1 mice, 1000 mg/Kg orally once daily
Procedure: The GPI induced arthritis model is adapted from K. Iwanami et al Arthritis Rheumatism 58, 754-763, 2008 and D. Schubert et al. J Immunology 172, 4503-4509, 2004. Mice (8-9 week old male DBA/1 mice) (Harlan) are randomly assigned into treatment groups based on body weights collected on the day of immunization (day 0). On the day of immunization (day 0), a 1:1 (v:v) mixture of recombinant human GPI (diluted to 4 mg/mL in PBS, Gibco) and complete Freund's adjuvant (CFA, Sigma) is mixed on a high speed homogenizer (Omni) for 40 minutes in a cold room. A final concentration of 2 mg/mL GPI is achieved in the emulsion. Mice are injected at the base of the tail (2 sites of injection, subcutaneously, 100 μL each site) with the GPI emulsion. Test compounds are dosed orally starting on the same day as immunization (day 0). Starting on day 0, each paw is scored for severity of joint swelling based on a 0 to 3 scoring system (See K. Iwanami et al Arthritis Rheumatism 58, 754-763, 2008. The clinical score represents the total score of all 4 paws (maximum score=12). Clinical scores are assessed on days 0, 2, 4, 7, 8, 9, 10, 11, 12, 14, 16, 18, and 21.
The AUC is calculated by a trapezoid method for clinical score over time from the day of immunization (day 0) to day 21. Test p-values were derived from Student's t-test.

| Compound | IC50 ([1]; Homo sapiens, PBMC, 48 h) | IC50 ([1]; 48 hours) | other results |
| --- | --- | --- | --- |
| CCS(=O)(=O)c1ccc(CNC(=O)c2cc3c(s2)C2(CCN([C@@H](C)c4cnc(C(F)(F)F)nc4)CC2)O[C@@H](C)C3)nc1 [Example 2, (5S′)—N-{[5-(Ethylsulfonyl)pyridine-2-yl]methyl}-5′-methyl-1-{(1S)-1-[2-(trifluoromethyl)pyrimidin-5-yl]ethyl}-4′,5′-dihydrospiro[piperidine-4,7′thieno[2,3-C]pyran]-2′-carboxamide] | 33.7 ± 33.1 nM |  |  |
| CCS(=O)(=O)c1ccc(CNC(=O)c2cc3c(s2)C2(CCN([C@H](C)c4cnc(C(F)(F)F)nc4)CC2)O[C@@H](C)C3)nc1 [Example 3, (5S′)—N-{[5-(Ethylsulfonyl)pyridine-2-yl]methyl}-5′-methyl-1-{(1R)-1-[2-(trifluoromethyl)pyrimidin-5-yl]ethyl}-4′,5′-dihydrospiro[piperidine-4,7′thieno[2,3-C]pyran]-2′-carboxamide] | 20 ± 12.6 nM |  | severity of paw swelling and mean clinical scores ([2]; compared to the vehicle group): reduces severity of paw swelling and maintains lower mean clinical scores; reduction in clinical score AUC ([2]; day 0 to day 21, compared to the vehicle group): 75%; Clinical Score AUC (mean ± SEM) ([2]; day 0 to day 21, n=8/group): 22.20 ± 8.68 |
| CCS(=O)(=O)c1ccc(CNC(=O)c2cc3c(s2)C2(CCN(C(C)c4cnc(C(F)(F)F)nc4)CC2)O[C@H](C)C3)nc1 (single isomer, unassigned; isomer 2) [Example 5, (5R′)—N-{[5-(Ethylsulfonyl)pyridine-2-yl]methyl}-5′-methyl-1-{1-[2-(trifluoromethyl)pyrimidin-5-yl]ethyl}-4′,5′-dihydrospiro[piperidine-4,7′thieno[2,3-C]pyran]-2′-carboxamide isomer 2] |  | 30.5 ± 29.3 nM |  |
| CCS(=O)(=O)c1ccc(CNC(=O)c2cc3c(s2)C2(CCN(C(C)c4cnc(C(F)(F)F)nc4)CC2)OC(C)C3)nc1 (centres unmarked) [Example 1, N-{[5-(Ethylsulfonyl)pyridine-2-yl]methyl}-5′-methyl-1-{1-[2-(trifluoromethyl)pyrimidin-5-yl]ethyl}-4′,5′-dihydrospiro[piperidine-4,7′thieno[2,3-C]pyran]-2′-carboxamide] | 77.3 nM |  |  |
| CCS(=O)(=O)c1ccc(CNC(=O)c2cc3c(s2)C2(CCN(C(C)c4cnc(C(F)(F)F)nc4)CC2)O[C@H](C)C3)nc1 (single isomer, unassigned; isomer 1) [Example 4, (5R′)—N-{[5-(Ethylsulfonyl)pyridine-2-yl]methyl}-5′-methyl-1-{1-[2-(trifluoromethyl)pyrimidin-5-yl]ethyl}-4′,5′-dihydrospiro[piperidine-4,7′thieno[2,3-C]pyran]-2′-carboxamide isomer 1] |  | 106 nM |  |

Reference: patent US9598431B1, “Compounds useful for inhibiting ROR-gamma-t” (Eli Lilly and Company, priority 2015, dated 2017)
